Counter-ions that a name gives are not always drawn. Like-named read-outs stand apart in the source and are kept apart here. One block for each compound: values may come before it.
Assays:
blood glucose = assay: Hypoglycaemic activity: reduction in area under blood glucose curve after glucose load; format: in vivo, Female CFLP mice; conditions: Mus musculus; for inhibition in vivo at 25 µmol/kg: 25 μmol/Kg oral
Description: Female CFLP mice, weighing approximately 25 g, were fasted for 24 hours prior to the study. The compounds under study were administered orally as an aqueous solution to each of 6 mice. 30 minutes later a blood sample (10 μl) was obtained from the tail for the analysis of blood glucose. Immediately after taking this blood sample, glucose (1 g/Kg body weight) was administered subcutaneously to each mouse. 6 mice were given water as a control. Blood samples were then obtained from each mouse at 30 minute intervals for 120 minutes.
Compounds that produced a significant (P<0.05) reduction of blood glucose, compared with control mice given water, at any time interval, were considered active. The area under the blood glucose curve over the 2 hour period after the administration of the glucose was calculated for each compound and compared with the value for control animals.

[1] = Effect on energy expenditure of mice; format: in vivo, Female CFLP mice; conditions: Mus musculus; for response vs control in vivo at 23.9 mg/kg: 23.9 mg/kg po; for response vs control in vivo at 22.1 mg/kg: 22.1 mg/kg po; for response vs control in vivo at 8.5 mg/kg: 8.5 mg/kg po
Description: Female CFLP mice, each weighing approximately 24 g were given food and water ad lib before and during the experiment. The compounds were dissolved in water by addition of one mole of hydrochloric acid per mole of compound and these solutions were administered orally to each of 12 mice. A further 12 mice were dosed orally with water. The mice were placed in boxes through which air was drawn and the oxygen content of the air leaving the boxes was measured. The energy expenditure of the mice was calculated for 21 hours after dosing from the volume of air leaving the boxes and its oxygen content, following the principles described by J. B. de V. Weir, J. Physiol. (London), 109, 1-9 (1949).

rat ear = assay: Topical anti-inflammatory activity, croton oil induced rat ear inflammation; format: in vivo; conditions: 1.00 mg/rat ear; 6 h; shown by significant (5% level) reduction in ear weight vs non-drug treated control
Description: The method used is based on that described by G. Tonelli et al (Endocrinology, 77, 625-634, 1965). An inflammation is induced in the rat ear by the application of 50 μl of a 1% solution of croton oil in tetrahydrofuran, test compounds being dissolved in the irritant vehicle. After 6 hours the inflammation is assessed by killing the animals and weighing the ears. Topical anti-inflammatory activity of a compound is generally considered to be shown when a significant (5% level) reduction in ear weight is seen compared to non-drug treated control.

[2] = system: platelet aggregation in human whole blood; assay: Collagen-induced platelet aggregation in human whole blood in vitro; format: cell-based; conditions: 3 mins pre-incubation
Description: Collagen-induced platelet aggregation in human whole blood in vitro.
Collagen added to stirred citrated blood causes platelet aggregation. As the platelets aggregate, the concentration of single platelets falls. […] Inhibitors of aggregation, such as aspirin and dipyridamole, reduce the response to collagen.
Blood drawn from volunteers who denied taking aspirin within the previous seven days was mixed with 0.1 vol 129 mM trisodium citrate, dispensed into 0.5 ml aliquots and kept at 25° C. Collagen (Hormon-Chemie, Munich) or 154 mM NaCl (control) was added to each aliquot of blood stirred at 1100 rpm in an aggregometer at 37° C. after 3 mins pre-incubation with compound or appropriate solvent. Aggregates were fixed by addition of 0.5 vol 4.5% formaldehyde or 0.05 vol phosphate-buffered glutaraldehyde. Single platelets were counted electronically. Responses, expressed as percent fall in platelet count, were obtained to a range of collagen concentrations. The concentration producing 50% maximal effect (EC50) was estimated from log10 concentration-response curves. Dose-ratios were calculated by dividing the EC50 obtained in the presence of compound under test by the control EC50.

right atrium = assay: Isolated rat atria screen: rate of spontaneously beating right atrium; set-up: species or system Sprague-Dawley male rats; conditions: for Emax: maximal effect relative to isoprenaline maximum (=1), read-out: Rate i.a. (intrinsic activity)
Description: (§1) Sprague-Dawley male rats (300-400 g) are killed and the right and left atria dissected out independently and mounted on a combined tissue holder/electrode. The tissues are then immersed in a glass bath containing Krebs solution maintained at 32° C. The rate of the spontaneously beating right atrium (via an isometric transducer and a ratemeter) and the tension of the electrically paced left atrium (via an isometric transducer) are recorded on an M19 chart recorder.
(§2) After an initial stabilization period, the tissues are exposed to a maximal concentration of isoprenaline (10^-7 M). The tissues are then washed several times until rate and tension return to baseline level. A dose-response curve to the test compound is then carried out.
(§3) Responses to each concentration of test compound are expressed as a percentage of the maximal responses to isoprenaline. Results are given in the form of (a) intrinsic activity (i.a.) (maximal effect of test compound with respect to isoprenaline maximum, i.e. isoprenaline intrinsic activity=1) and (b) EC50 (the molar concentration at which the test compound produces 50% of its own maximum response).

left atrium = assay: Isolated rat atria screen: tension of electrically paced left atrium; set-up: species or system Sprague-Dawley male rats; conditions: for Emax: maximal effect relative to isoprenaline maximum (=1), read-out: Tension i.a. (intrinsic activity); for EC50: concentration producing 50% of its own maximum response
Description: as §1, §2, §3

[3] = 2 h after glucose 1 g/Kg s.c., vs control, read-out: % Reduction in area under Blood Glucose Curve
[4] = 0-3 h, read-out: Mean Energy Expenditure (0-3 h)
[5] = 0-21 h, read-out: Mean Energy Expenditure (0-21 h)
[6] = po, 2 h, read-out: % Reduction in area under Blood Glucose Curve
[7] = po, 3 h, read-out: Mean Energy Expenditure (0-3 h)
[8] = po, 21 h, read-out: Mean Energy Expenditure (0-21 h)
[9] = final concentration in whole blood 200 μM

Structure (SMILES): CCCOC(CNC(C)Cc1ccc(OCCNC)cc1)c1cccc(Cl)c1 (stereo not drawn) [Example 29, N-[2-(4-(2-Methylaminoethoxy)phenyl)-1-methylethyl]-2-^n propoxy-2-(3-chlorophenyl)ethanamine dihydrochloride]
inhibition in vivo at 25 µmol/kg (blood glucose; [3]): 43% | response vs control in vivo at 23.9 mg/kg [1, 4]: 144% | response vs control in vivo at 23.9 mg/kg [1, 5]: 118% | Topical anti-inflammatory ACTIVITY (rat ear): Active | DOSE RATIO (EC50 of collagen with compound / control EC50) ([2]; final concentration in whole blood 100 μM): 10.8

Structure (SMILES): CNCCOc1ccc(CC(C)NCC(OC)c2cccc(Cl)c2)cc1 (stereo not drawn) [Example 6, N-[2-(4-(2-Methylaminoethoxy)phenyl)-1-methylethyl]-2-methoxy-2-(3-chlorophenyl)ethanamine dihydrochloride]
inhibition in vivo at 12.5 µmol/kg (blood glucose; [6]): 55% | response vs control in vivo at 22.5 mg/kg [1, 7]: 154% | response vs control in vivo at 22.5 mg/kg [1, 8]: 126% | Emax (right atrium): 0% | Emax (left atrium): 0%

Structure (SMILES): CNC(=O)COc1ccc(CC(C)NCC(OC)c2ccccc2F)cc1 (stereo not drawn) [Example 55, N-[2-(4-Methylaminocarbonylmethoxyphenyl)-1-methylethyl]-2-methoxy-2-(2-fluorophenyl)ethanamine hydrochloride]
inhibition in vivo at 12.5 µmol/kg (blood glucose; [6]): 42% | response vs control in vivo at 20.6 mg/kg [1, 7]: 150% | response vs control in vivo at 20.6 mg/kg [1, 8]: 121%

Structure (SMILES): COC(=O)c1ccc(CC(C)NCC(OC)c2cccc(Cl)c2)cc1 (stereo not drawn) [Example 5, N-[2-(4-Carbomethoxyphenyl)-1-methylethyl]-2-methoxy-2-(3-chlorophenyl)ethanamine hydrochloride]
inhibition in vivo at 12.5 µmol/kg (blood glucose; [6]): 27% | response vs control in vivo at 19.9 mg/kg [1, 7]: 128% | response vs control in vivo at 19.9 mg/kg [1, 8]: 117%

DOSE RATIO (EC50 of collagen with compound / control EC50) [2, 9]: 3.7 ± 1.1
Structure (SMILES): OCCN(CCO)c1nc(N2CCCCC2)c2nc(N(CCO)CCO)nc(N3CCCCC3)c2n1 [Dipyridamole, reference compound]

Structure (SMILES): CNC(=O)COc1ccc(CC(C)NCC(COc2ccccc2)OC)cc1 (stereo not drawn) [Example 52, N-[2-(4-Methylaminocarbonylmethoxyphenyl)-1-methylethyl]-2-methoxy-3-phenoxypropanamine hydrochloride]
inhibition in vivo at 12.5 µmol/kg (blood glucose; [6]): 35% | response vs control in vivo at 21.1 mg/kg [1, 7]: 130% | response vs control in vivo at 21.1 mg/kg [1, 8]: 113%

Structure (SMILES): CCCOC(CNC(C)Cc1ccc(OCC(=O)NC)cc1)c1cccc(Cl)c1 (stereo not drawn) [Example 27, N-[2-(4-Methylaminocarbonylmethoxyphenyl)-1-methylethyl]-2-^n propoxy-2-(3-chlorophenyl)ethanamine dihydrochloride hemihydrate]
inhibition in vivo at 2.5 µmol/kg (blood glucose; 2.5 μmol/Kg oral, 2 h after glucose 1 g/Kg s.c., vs control, read-out: % Reduction in area under Blood Glucose Curve): 52% | response vs control in vivo at 25.1 mg/kg [1, 8]: 115% | response vs control in vivo at 25.1 mg/kg ([1]; 25.1 mg/kg po, 0-3 h, read-out: Mean Energy Expenditure (0-3 h)): 143%

Structure (SMILES): COC(=O)COc1ccc(CC(C)NCC(OC)c2cccc(Br)c2)cc1 (stereo not drawn) [Example 12, N-[2-(4-Carbomethoxymethoxyphenyl)-1-methylethyl]-2-methoxy-2-(3-bromophenyl)ethanamine hydrochloride]
inhibition in vivo at 1 µmol/kg (blood glucose; [6]): 51% | response vs control in vivo at 23.6 mg/kg [1, 7]: 130% | response vs control in vivo at 23.6 mg/kg [1, 8]: 123%

Structure (SMILES): CNC(=O)COc1ccc(CC(C)NCC(OC)c2cccc(C(F)(F)F)c2)cc1 (stereo not drawn) [Example 7, N-[2-(4-Methylaminocarbonylmethoxyphenyl)-1-methylethyl]-2-methoxy-2-(3-trifluoromethylphenyl)ethanamine hydrochloride]
inhibition in vivo at 2.5 µmol/kg (blood glucose; [6]): 32% | response vs control in vivo at 23 mg/kg [1, 7]: 143% | response vs control in vivo at 23 mg/kg [1, 8]: 123% | EC50 (right atrium; concentration producing 50% of its own maximum response): 1.5 µM | Emax (right atrium): 6% | EC50 (left atrium): 36 µM | Emax (left atrium): 23%

Structure (SMILES): CNC(=O)COc1ccc(CCC(C)NCC(OC)c2cccc(Cl)c2)cc1 (stereo not drawn) [Example 22, N-[3-(4-Methylaminocarbonylmethoxyphenyl)-1-methylpropyl]-2-methoxy-2-(3-chlorophenyl)ethanamine hydrochloride]
inhibition in vivo at 25 µmol/kg (blood glucose; [3]): 39% | response vs control in vivo at 22.1 mg/kg [1, 4]: 126% | response vs control in vivo at 22.1 mg/kg [1, 5]: 107%

Structure (SMILES): CC(=O)Oc1ccccc1C(=O)O [Aspirin, reference compound]
DOSE RATIO (EC50 of collagen with compound / control EC50) [2, 9]: 2.0 ± 0.1

Structure (SMILES): COC(CNC(C)Cc1ccc(OCCN)cc1)c1cccc(Cl)c1 (stereo not drawn) [Example 24, N-[2-(4-(2-Aminoethoxy)phenyl)-1-methylethyl]-2-methoxy-2-(3-chlorophenyl)ethanamine dihydrochloride hemihydrate]
inhibition in vivo at 12.5 µmol/kg (blood glucose; 12.5 μmol/Kg oral, 2 h after glucose 1 g/Kg s.c., vs control, read-out: % Reduction in area under Blood Glucose Curve): 51% | response vs control in vivo at 22.3 mg/kg [1, 8]: 128% | response vs control in vivo at 22.3 mg/kg ([1]; 22.3 mg/kg po, 0-3 h, read-out: Mean Energy Expenditure (0-3 h)): 147%

Structure (SMILES): COC(=O)COc1ccc(CC(C)NCC(OC)c2cccc(Cl)c2)cc1.Cl (stereo not drawn) [Example 1, N-[2-(4-Carbomethoxymethoxyphenyl)-1-methylethyl]-2-methoxy-2-(3-chlorophenyl)ethanamine hydrochloride]
inhibition in vivo at 0.25 µmol/kg (blood glucose; [6]): 47% | response vs control in vivo at 21.4 mg/kg [1, 7]: 151% | response vs control in vivo at 21.4 mg/kg [1, 8]: 138% | Emax (right atrium): 0% | EC50 (left atrium): 30 µM | Emax (left atrium): 30% | Topical anti-inflammatory ACTIVITY (rat ear): Active | DOSE RATIO (EC50 of collagen with compound / control EC50) ([2]; final concentration in whole blood 300 μM): 6.9

Structure (SMILES): CNC(=O)COc1ccc(CC(C)NCC(OC)c2cc3ccccc3o2)cc1 (stereo not drawn) [Example 37, N-[2-(4-Methylaminocarbonylmethoxyphenyl)-1-methylethyl]-2-methoxy-2-(2-benzofuranyl)ethanamine dihydrochloride]
inhibition in vivo at 1 µmol/kg (blood glucose; [6]): 26% | response vs control in vivo at 23.6 mg/kg [1, 7]: 134% | response vs control in vivo at 23.6 mg/kg [1, 8]: 106%

Structure (SMILES): CNCCOc1ccc(C[C@@H](C)NC[C@H](OC)c2ccccc2)cc1 [Example 59, N-[2-(4-(2-Methylaminoethoxy)phenyl)-1-(R)-1-methylethyl]-2-(R)-2-methoxy-2-phenylethanamine dihydrochloride hemihydrate]
inhibition in vivo at 25 µmol/kg (blood glucose; [3]): 36% | response vs control in vivo at 8.5 mg/kg [1, 4]: 148% | response vs control in vivo at 8.5 mg/kg [1, 5]: 111%

Structure (SMILES): CCCCCCOC(CNC(C)Cc1ccc(OCC(=O)OC)cc1)c1cccc(Cl)c1 (stereo not drawn) [Example 44, N-[2-(4-Carbomethoxymethoxyphenyl)-1-methylethyl]-2-^n hexyloxy-2-(3-chlorophenyl)ethanamine hydrochloride]
inhibition in vivo at 7.5 µmol/kg (blood glucose; 7.5 μmol/Kg oral, 2 h after glucose 1 g/Kg s.c., vs control): 34% | response vs control in vivo at 24.9 mg/kg [1, 7]: 145% | response vs control in vivo at 24.9 mg/kg ([1]; 24.9 mg/kg po, 0-21 h, read-out: Mean Energy Expenditure (0-21 h)): 101%

From patent publication US4629737A, “Secondary amines and use in pharmaceutical compositions” (Beecham Group p.l.c., priority 1982, dated 1986)
